The record followed here is patent EP0583976A2, “Gastroprotective complexes with cyclodextrin” (Bristol-Myers Squibb Company, priority 1992, dated 1994).

The subject of one assay is beagles. In words: Endoscopic scoring of aspirin-induced gastric irritation in beagles (scale 0 to 7), percent protection. Type of assay: in vivo. Conditions: oral, with 975 mg aspirin (ASA), antacid about 15 mEq where present; endoscopy at two and four hours; versus Control A (ASA alone). The method, then:
(§1) The product obtained above was tested as follows: 10 beagles were fasted overnight. At zero time, the stomach of each animal was endoscopically examined to assure a normal mucosa. Encapsulated compositions containing about 15 mEq MgO in the freshly prepared MgO-CD complex and 975 mg aspirin (ASA) were administered orally and flushed with 50 ml water.
At two and four hours after administration of the encapsulated composition, the stomachs of the animals were endoscopically reexamined for gastric irritation. Irritation was measured according to a scale of 0 to 7, wherein zero was the condition of the mucosa for a normal stomach and a value of 7 represents massive hemorrhagic damage.
Three control tests were also conducted. In Control A the animals were administered 975 mg ASA. In Control B the animals were administered 6.27 mg α-CD and 975 aspirin and in Control C the animals were administered 15 mEq MgO and 975 aspirin.
(§2) wherein n is the number of animals, % Protection is the difference in irritation scores (on the scale of 0 to 7) between Control A and the MgO-CD complex divided by the irritation score for Control A multiplied by 100, and pH is the pH of the antrum fluid sample. The complex of the present invention is seen to have provided a substantial increase in percent protection coupled with a marked increase in pH over the controls.

A short description of assay [1]: pH of gastric fluid sample obtained from the antrum after dosing. Conditions: oral, with 975 mg aspirin (ASA), antacid about 15 mEq where present. Type of assay: in vivo, beagles. The method, then: as §1
In addition, a sample of gastric fluid was obtained from the antrum, and its general appearance noted and its pH measured.
as §2

Regarding `[OH][Al]([OH])[OH]` [Al(OH)₃], in the assay with beagles, the “% Protection” value is on record as 10.8 ± 4.6%. The molecule also had a pH in assay [1] of 4.72 ± 0.85.
In the case of `CC(=O)Oc1ccccc1C(=O)O` [Control A, aspirin], in the assay on beagles, the “% Protection” value is given as 0%. Further, the pH in assay [1] worked out at 3.74 ± 0.44.
On to `O=C(O)O` [MgCO₃], for which the “% Protection” value in the assay with beagles is given as 2.1 ± 6.1%. Further, the pH in assay [1] was 3.33 ± 0.81.
Regarding CaCO₃, the “% Protection” value in the assay with beagles is on record as 3.0 ± 5%. Besides, in assay [1], the pH came out at 4.17 ± 0.90.
